In US7282504B2, “Kinase inhibitors” (Amgen Inc., priority 2000, dated 2007):

Columns and labels:
Format in all cases: biochemical
Fyn-1 = molecular target: T1, Fyn-1 (Homo sapiens, UniProt P06241); experiment: Kinase inhibition, 33P transfer to plate-bound substrate: Fyn-1
T1 construct: Kinases are expressed as either kinase domains or full-length constructs; made in house
Excerpt: (§1) The inhibitor compounds described herein are screened in the following manner. Kinases suitable for use in the following protocol to determine kinase activity of the compounds described herein include, but are not limited to: Lck, Lyn, Src, Fyn, Syk, Zap-70, Itk, Tec, Btk, EGFR, ErbB2, Kdr, Flt-1, Flt-3, Tek, c-Met, InsR, and AKT.
(§2) Kinases are expressed as either kinase domains or full-length constructs fused to glutathione S-transferase (GST) or polyHistidine tagged fusion proteins in either E. coli or Baculovirus-High Five expression systems. They are purified to near homogeneity by affinity chromatography essentially as previously described (Lehr et al., 1996; Gish et al., 1995). In some instances, kinases are co-expressed or mixed with purified or partially purified regulatory polypeptides prior to measurement of activity.
(§3) Kinase activity and inhibition are measured essentially by established protocols (Braunwalder et al., 1996). Briefly, The transfer of ^33PO4 from ATP to the synthetic substrates poly(Glu, Tyr) 4:1 or poly(Arg, Ser) 3:1 attached to the bioactive surface of microtiter plates serves as the basis to evaluate enzyme activity. After an incubation period, the amount of phosphate transferred is measured by first washing the plate with 0.5% phosphoric acid, adding liquid scintillant, and then counting in a liquid scintillation detector. The IC50 is determined by the concentration of compound that causes a 50% reduction in the amount of ^33P incorporated onto the substrate bound to the plate.

FGFR1-1 = molecular target: T2, FGFR1-1 (Homo sapiens, UniProt P11362); experiment: Kinase inhibition, 33P transfer to plate-bound substrate: FGFR1-1
T2 construct: Kinases are expressed as either kinase domains or full-length constructs; made in house
Excerpt: as §1, §2, §3

IGFR-1 = molecular target: T3, IGFR-1 (Homo sapiens, UniProt P08069); experiment: Kinase inhibition, 33P transfer to plate-bound substrate: IGFR-1
T3 construct: Kinases are expressed as either kinase domains or full-length constructs; made in house
T3 sequence (P08069 31-1367): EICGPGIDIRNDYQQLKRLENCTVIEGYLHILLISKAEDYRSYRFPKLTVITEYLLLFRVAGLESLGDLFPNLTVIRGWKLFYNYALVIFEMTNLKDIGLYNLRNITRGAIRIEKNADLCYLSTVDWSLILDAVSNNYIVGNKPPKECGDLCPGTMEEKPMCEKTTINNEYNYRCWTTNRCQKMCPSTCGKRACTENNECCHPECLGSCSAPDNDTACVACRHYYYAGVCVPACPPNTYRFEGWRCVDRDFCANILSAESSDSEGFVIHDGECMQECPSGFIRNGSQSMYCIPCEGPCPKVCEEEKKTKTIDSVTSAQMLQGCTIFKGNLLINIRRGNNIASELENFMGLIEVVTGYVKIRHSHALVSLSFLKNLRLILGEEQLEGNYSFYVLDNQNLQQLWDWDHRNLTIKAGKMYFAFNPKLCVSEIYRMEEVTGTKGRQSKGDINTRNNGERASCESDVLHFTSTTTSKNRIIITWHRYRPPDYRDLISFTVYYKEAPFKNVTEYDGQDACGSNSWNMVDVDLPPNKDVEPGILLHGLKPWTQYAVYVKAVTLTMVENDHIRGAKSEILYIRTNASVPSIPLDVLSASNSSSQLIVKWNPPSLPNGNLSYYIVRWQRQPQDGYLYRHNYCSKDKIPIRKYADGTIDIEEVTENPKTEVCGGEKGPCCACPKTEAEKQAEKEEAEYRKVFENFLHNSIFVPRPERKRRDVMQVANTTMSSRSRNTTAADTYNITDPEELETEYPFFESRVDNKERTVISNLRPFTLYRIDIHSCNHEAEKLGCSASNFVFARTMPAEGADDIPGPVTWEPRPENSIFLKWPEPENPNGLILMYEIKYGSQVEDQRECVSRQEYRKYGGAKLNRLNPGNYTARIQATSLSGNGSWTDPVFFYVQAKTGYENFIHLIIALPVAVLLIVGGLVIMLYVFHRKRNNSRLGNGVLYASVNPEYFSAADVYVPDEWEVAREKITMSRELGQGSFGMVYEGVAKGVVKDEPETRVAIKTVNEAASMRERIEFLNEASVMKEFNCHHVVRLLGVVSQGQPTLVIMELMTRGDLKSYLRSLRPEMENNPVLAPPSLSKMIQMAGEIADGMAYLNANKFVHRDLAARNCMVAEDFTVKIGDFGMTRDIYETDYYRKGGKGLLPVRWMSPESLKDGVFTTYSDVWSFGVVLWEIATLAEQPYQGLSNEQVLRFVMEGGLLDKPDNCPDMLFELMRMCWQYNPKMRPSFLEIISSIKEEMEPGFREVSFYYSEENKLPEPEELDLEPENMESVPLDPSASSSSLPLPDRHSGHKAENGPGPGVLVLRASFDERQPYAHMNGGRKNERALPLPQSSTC
Excerpt: as §1, §2, §3

Akt3-1 = molecular target: T4, Akt3-1 (Homo sapiens, UniProt Q9Y243); experiment: Kinase inhibition, 33P transfer to plate-bound substrate: Akt3-1
T4 construct: Kinases are expressed as either kinase domains or full-length constructs; made in house
T4 sequence (Q9Y243 whole entry, the tested form may be a part): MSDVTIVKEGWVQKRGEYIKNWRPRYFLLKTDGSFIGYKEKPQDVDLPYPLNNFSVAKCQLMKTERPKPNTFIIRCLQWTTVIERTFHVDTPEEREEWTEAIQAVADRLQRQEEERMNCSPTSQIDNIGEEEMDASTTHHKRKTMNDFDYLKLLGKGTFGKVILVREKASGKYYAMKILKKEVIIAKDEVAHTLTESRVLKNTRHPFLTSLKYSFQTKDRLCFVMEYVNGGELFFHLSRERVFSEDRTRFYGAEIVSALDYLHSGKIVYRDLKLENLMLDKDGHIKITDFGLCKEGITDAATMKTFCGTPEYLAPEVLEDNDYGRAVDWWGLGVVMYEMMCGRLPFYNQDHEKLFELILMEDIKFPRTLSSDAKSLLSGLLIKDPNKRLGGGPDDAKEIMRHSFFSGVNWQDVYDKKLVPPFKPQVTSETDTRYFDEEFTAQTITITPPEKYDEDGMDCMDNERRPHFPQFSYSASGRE
Excerpt: as §1, §2, §3

Src-1 = molecular target: T5, Src-1 (Homo sapiens, UniProt P12931); experiment: Kinase inhibition, 33P transfer to plate-bound substrate: Src-1
T5 construct: Kinases are expressed as either kinase domains or full-length constructs; made in house
Excerpt: as §1, §2, §3

Zap-1 = molecular target: T6, Zap-1 (Homo sapiens, UniProt P43403); experiment: Kinase inhibition, 33P transfer to plate-bound substrate: Zap-1
T6 construct: Kinases are expressed as either kinase domains or full-length constructs; made in house
T6 sequence (P43403 1-619): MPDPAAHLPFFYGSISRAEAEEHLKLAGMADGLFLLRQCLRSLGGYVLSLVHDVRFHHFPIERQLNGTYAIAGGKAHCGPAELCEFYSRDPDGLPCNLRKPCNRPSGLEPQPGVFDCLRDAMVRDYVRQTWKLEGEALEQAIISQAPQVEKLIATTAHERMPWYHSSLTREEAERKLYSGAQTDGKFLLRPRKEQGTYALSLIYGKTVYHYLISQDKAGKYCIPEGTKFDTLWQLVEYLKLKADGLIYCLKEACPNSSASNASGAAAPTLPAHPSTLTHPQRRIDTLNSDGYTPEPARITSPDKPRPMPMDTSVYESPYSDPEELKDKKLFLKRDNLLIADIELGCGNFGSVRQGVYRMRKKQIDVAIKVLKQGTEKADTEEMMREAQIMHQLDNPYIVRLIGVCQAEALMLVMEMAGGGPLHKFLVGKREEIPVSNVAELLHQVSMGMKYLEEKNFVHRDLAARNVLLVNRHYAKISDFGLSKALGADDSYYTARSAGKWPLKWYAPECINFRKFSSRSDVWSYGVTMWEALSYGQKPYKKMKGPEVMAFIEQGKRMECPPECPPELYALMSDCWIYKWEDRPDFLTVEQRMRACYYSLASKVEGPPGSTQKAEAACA
Excerpt: as §1, §2, §3

Itk-1 = molecular target: T7, Itk-1 (Homo sapiens, UniProt Q08881); experiment: Kinase inhibition, 33P transfer to plate-bound substrate: Itk-1
T7 construct: Kinases are expressed as either kinase domains or full-length constructs; made in house
T7 sequence (Q08881 1-620): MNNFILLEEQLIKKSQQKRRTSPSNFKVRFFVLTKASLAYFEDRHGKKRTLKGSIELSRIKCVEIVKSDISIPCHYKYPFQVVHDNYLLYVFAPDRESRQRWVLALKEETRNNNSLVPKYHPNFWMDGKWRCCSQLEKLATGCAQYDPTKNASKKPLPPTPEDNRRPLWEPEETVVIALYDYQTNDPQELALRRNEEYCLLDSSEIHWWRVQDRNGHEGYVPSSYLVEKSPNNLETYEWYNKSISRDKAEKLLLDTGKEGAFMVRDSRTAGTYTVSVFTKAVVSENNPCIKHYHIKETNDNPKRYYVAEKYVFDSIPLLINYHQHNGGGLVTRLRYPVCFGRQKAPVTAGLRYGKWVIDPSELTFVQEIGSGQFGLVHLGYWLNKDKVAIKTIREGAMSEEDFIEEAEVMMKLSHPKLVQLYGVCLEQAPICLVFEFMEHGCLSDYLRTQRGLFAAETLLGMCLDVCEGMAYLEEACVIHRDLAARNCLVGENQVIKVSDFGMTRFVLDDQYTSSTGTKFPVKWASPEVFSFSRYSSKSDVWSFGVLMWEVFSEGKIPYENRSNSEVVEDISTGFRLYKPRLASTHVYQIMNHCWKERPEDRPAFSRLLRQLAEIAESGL
Excerpt: as §1, §2, §3

Lck-2 = molecular target: T8, Lck-2 (Homo sapiens, UniProt P06239); experiment: Kinase inhibition, 33P transfer to plate-bound substrate: Lck-2
T8 construct: Kinases are expressed as either kinase domains or full-length constructs; made in house
T8 sequence (P06239 whole entry, the tested form may be a part): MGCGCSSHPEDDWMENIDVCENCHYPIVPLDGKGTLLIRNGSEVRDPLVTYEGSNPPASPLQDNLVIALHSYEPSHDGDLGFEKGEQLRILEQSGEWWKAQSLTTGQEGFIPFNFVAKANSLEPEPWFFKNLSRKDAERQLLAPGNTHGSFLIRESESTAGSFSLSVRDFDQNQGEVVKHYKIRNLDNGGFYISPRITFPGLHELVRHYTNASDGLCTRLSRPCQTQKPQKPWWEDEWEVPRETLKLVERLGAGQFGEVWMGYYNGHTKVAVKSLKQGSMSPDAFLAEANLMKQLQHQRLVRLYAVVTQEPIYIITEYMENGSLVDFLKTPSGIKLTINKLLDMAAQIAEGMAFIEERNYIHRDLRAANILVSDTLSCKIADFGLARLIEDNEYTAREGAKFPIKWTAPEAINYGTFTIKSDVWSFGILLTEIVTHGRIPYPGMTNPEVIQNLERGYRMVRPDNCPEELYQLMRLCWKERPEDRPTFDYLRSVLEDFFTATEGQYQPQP
Excerpt: as §1, §2, §3

Flt1-1 = molecular target: T9, Flt1-1 (Homo sapiens, UniProt P17948); experiment: Kinase inhibition, 33P transfer to plate-bound substrate: Flt1-1
T9 construct: Kinases are expressed as either kinase domains or full-length constructs; made in house
Excerpt: as §1, §2, §3

Met-1 = molecular target: T10, Met-1 (Homo sapiens, UniProt P08581); experiment: Kinase inhibition, 33P transfer to plate-bound substrate: Met-1
T10 construct: Kinases are expressed as either kinase domains or full-length constructs; made in house
Excerpt: as §1, §2, §3

PDGFRB = molecular target: T11, PDGFRB (Homo sapiens, UniProt P09619); experiment: Kinase inhibition, 33P transfer to plate-bound substrate: PDGFRB
T11 construct: Kinases are expressed as either kinase domains or full-length constructs; made in house
Excerpt: as §1, §2, §3

Ret-1 = molecular target: T12, Ret-1 (Homo sapiens, UniProt P07949); experiment: Kinase inhibition, 33P transfer to plate-bound substrate: Ret-1
T12 construct: Kinases are expressed as either kinase domains or full-length constructs; made in house
Excerpt: as §1, §2, §3

InsR-1 = molecular target: T13, InsR-1 (Homo sapiens, UniProt P06213); experiment: Kinase inhibition, 33P transfer to plate-bound substrate: InsR-1
T13 construct: Kinases are expressed as either kinase domains or full-length constructs; made in house
Excerpt: as §1, §2, §3

Lck-1 = molecular target: T14, Lck-1 (Homo sapiens, UniProt P06239); experiment: Kinase inhibition, 33P transfer to plate-bound substrate: Lck-1
T14 construct: Kinases are expressed as either kinase domains or full-length constructs; made in house
T14 sequence (P06239 whole entry, the tested form may be a part): as above
Excerpt: as §1, §2, §3

ErbB2-1 = molecular target: T15, ErbB2-1 (Homo sapiens, UniProt P04626); experiment: Kinase inhibition, 33P transfer to plate-bound substrate: ErbB2-1
T15 construct: Kinases are expressed as either kinase domains or full-length constructs; made in house
T15 sequence (P04626 23-1255): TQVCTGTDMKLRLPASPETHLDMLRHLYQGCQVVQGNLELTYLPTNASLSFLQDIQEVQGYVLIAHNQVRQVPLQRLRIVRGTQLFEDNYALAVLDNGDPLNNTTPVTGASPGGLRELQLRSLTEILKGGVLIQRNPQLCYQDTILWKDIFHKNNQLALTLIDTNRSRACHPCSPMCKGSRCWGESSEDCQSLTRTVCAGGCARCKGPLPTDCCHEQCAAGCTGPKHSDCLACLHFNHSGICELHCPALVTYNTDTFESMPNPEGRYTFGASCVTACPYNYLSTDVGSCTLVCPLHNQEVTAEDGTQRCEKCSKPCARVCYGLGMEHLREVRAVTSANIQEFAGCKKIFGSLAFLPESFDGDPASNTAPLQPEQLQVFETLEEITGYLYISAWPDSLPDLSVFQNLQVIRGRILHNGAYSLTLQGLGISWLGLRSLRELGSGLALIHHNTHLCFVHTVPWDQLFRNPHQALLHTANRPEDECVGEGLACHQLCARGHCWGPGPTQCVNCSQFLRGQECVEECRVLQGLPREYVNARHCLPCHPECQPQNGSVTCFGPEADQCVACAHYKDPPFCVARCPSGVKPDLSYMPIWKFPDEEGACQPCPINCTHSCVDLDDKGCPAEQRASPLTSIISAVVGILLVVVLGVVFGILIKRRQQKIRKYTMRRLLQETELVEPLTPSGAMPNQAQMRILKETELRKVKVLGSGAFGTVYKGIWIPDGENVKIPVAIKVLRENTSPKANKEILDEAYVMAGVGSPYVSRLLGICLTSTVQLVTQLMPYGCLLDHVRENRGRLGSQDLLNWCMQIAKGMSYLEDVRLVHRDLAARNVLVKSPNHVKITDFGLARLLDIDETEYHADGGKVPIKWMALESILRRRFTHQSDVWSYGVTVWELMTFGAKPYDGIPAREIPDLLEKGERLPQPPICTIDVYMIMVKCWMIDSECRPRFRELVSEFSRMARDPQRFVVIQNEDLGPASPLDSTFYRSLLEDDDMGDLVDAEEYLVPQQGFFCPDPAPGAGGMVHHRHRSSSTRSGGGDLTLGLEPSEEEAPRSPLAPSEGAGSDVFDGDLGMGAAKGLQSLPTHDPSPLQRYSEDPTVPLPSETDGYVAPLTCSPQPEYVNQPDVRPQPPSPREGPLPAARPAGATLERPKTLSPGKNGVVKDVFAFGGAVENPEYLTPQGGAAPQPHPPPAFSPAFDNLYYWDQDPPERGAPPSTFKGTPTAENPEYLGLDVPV
Excerpt: as §1, §2, §3

KDR-1 = molecular target: T16, KDR-1 (Homo sapiens, UniProt P35968); experiment: Kinase inhibition, 33P transfer to plate-bound substrate: KDR-1
T16 construct: Kinases are expressed as either kinase domains or full-length constructs; made in house
Excerpt: as §1, §2, §3

EGFR-1 = molecular target: T17, EGFR-1 (Homo sapiens, UniProt P00533); experiment: Kinase inhibition, 33P transfer to plate-bound substrate: EGFR-1
T17 construct: Kinases are expressed as either kinase domains or full-length constructs; made in house
T17 sequence (P00533 25-1210): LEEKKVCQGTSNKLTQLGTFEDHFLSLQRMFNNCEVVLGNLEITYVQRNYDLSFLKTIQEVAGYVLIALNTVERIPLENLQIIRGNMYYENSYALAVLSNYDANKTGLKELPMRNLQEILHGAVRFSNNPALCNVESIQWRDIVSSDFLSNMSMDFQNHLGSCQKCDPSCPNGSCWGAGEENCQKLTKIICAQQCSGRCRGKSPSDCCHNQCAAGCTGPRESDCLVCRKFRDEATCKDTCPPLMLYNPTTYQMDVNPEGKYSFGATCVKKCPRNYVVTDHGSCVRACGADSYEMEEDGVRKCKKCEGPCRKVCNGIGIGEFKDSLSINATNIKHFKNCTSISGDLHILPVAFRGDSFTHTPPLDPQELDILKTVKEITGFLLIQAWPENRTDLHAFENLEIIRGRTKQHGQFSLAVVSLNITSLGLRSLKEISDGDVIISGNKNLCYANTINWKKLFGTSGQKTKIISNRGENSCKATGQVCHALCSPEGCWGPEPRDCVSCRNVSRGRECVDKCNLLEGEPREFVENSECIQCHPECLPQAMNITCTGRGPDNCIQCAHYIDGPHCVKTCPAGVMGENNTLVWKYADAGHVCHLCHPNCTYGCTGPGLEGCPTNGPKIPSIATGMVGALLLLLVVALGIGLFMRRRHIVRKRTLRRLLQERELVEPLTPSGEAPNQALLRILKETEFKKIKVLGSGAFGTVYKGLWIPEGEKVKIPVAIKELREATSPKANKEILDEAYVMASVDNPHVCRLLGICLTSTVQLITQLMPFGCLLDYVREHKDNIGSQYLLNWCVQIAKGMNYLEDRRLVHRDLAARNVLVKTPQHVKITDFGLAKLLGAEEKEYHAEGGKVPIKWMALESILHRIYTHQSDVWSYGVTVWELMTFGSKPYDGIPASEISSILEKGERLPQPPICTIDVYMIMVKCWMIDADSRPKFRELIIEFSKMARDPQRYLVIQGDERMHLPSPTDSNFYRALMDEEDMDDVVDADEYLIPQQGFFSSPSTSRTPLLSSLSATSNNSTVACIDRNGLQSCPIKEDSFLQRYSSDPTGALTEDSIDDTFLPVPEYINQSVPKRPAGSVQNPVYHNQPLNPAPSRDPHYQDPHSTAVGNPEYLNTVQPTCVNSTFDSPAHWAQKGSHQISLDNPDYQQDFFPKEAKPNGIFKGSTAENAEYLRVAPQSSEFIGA
Excerpt: as §1, §2, §3

Tek-1 = molecular target: T18, Tek-1 (Homo sapiens, UniProt Q02763); experiment: Kinase inhibition, 33P transfer to plate-bound substrate: Tek-1
T18 construct: Kinases are expressed as either kinase domains or full-length constructs; made in house
Excerpt: as §1, §2, §3

Row | SMILES | IC50 (Fyn-1) | IC50 (FGFR1-1) | IC50 (IGFR-1) | IC50 (Akt3-1) | IC50 (Src-1) | IC50 (Zap-1) | IC50 (Itk-1) | IC50 (Lck-2) | IC50 (Flt1-1) | IC50 (Met-1) | IC50 (PDGFRB) | IC50 (Ret-1) | IC50 (InsR-1) | IC50 (Lck-1) | IC50 (ErbB2-1) | IC50 (KDR-1) | IC50 (EGFR-1) | IC50 (Tek-1)
1 | COc1ccc(Nc2ccnc(Nc3ccc(OC)c(OC)c3)n2)cc1OC [Compound 56] | 5 to 10 µM | 1.5 to 5 µM | < 1.5 µM | ≥ 10 µM | 1.5 to 5 µM | ≥ 10 µM | ≥ 10 µM | < 1.5 µM | 1.5 to 5 µM | ≥ 10 µM | < 1.5 µM | 1.5 to 5 µM | ≥ 10 µM | 5 to 10 µM | ≥ 10 µM | < 1.5 µM | ≥ 10 µM | –
2 | COc1cc(Nc2ccnc(Nc3ccc(OCc4ccccc4)cc3)n2)cc(OC)c1OC [Compound 58] | – | – | – | – | – | – | 5 to 10 µM | < 1.5 µM | – | 5 to 10 µM | – | – | – | 5 to 10 µM | – | 5 to 10 µM | ≥ 10 µM | –
3 | Clc1cccc(Nc2ccnc(Nc3cccc(Cl)c3)n2)c1 [Compound 57] | – | 5 to 10 µM | < 1.5 µM | ≥ 10 µM | – | ≥ 10 µM | 5 to 10 µM | < 1.5 µM | 5 to 10 µM | 1.5 to 5 µM | 5 to 10 µM | < 1.5 µM | 5 to 10 µM | ≥ 10 µM | ≥ 10 µM | < 1.5 µM | ≥ 10 µM | –
4 | COc1cc(Nc2nccc(-n3c(N)nc4ccccc43)n2)cc(OC)c1OC [Compound 11] | – | – | – | 5 to 10 µM | – | ≥ 10 µM | 5 to 10 µM | 1.5 to 5 µM | – | 5 to 10 µM | – | – | – | 5 to 10 µM | – | 5 to 10 µM | ≥ 10 µM | ≥ 10 µM
5 | COc1cc(Nc2ccnc(-n3ccc4ccccc43)n2)cc(OC)c1OC [Compound 32] | – | – | – | ≥ 10 µM | – | ≥ 10 µM | – | ≥ 10 µM | – | ≥ 10 µM | – | – | – | ≥ 10 µM | – | 5 to 10 µM | ≥ 10 µM | ≥ 10 µM
6 | COc1cc(Nc2ccnc(Nc3ccc4c(cnn4Cc4ccccc4)c3)n2)cc(OC)c1OC [Compound 37] | – | – | < 1.5 µM | ≥ 10 µM | – | ≥ 10 µM | 1.5 to 5 µM | < 1.5 µM | – | 1.5 to 5 µM | < 1.5 µM | – | – | < 1.5 µM | < 1.5 µM | 1.5 to 5 µM | 1.5 to 5 µM | –
7 | Cc1cccc(Nc2nccc(Nc3cccc(Br)c3)n2)c1 [Compound 54] | – | – | < 1.5 µM | ≥ 10 µM | – | – | ≥ 10 µM | ≥ 10 µM | – | ≥ 10 µM | 5 to 10 µM | – | – | ≥ 10 µM | ≥ 10 µM | 5 to 10 µM | ≥ 10 µM | –
8 | COc1cc(Nc2nccc(Nc3ccc4c(cnn4Cc4ccccc4)c3)n2)cc(OC)c1OC [Compound 36] | – | – | < 1.5 µM | ≥ 10 µM | – | 5 to 10 µM | < 1.5 µM | < 1.5 µM | – | 1.5 to 5 µM | < 1.5 µM | – | – | < 1.5 µM | < 1.5 µM | < 1.5 µM | < 1.5 µM | –
